Holding throughout (test): NCI tumour cell line growth inhibition, 48 h
In test [1] the test system is UACC-257 melanoma.
The test system of test [2] is HT29 colon.
For test [3], the system named is SK-MEL-28 melanoma.
The subject of test [4] is HOP-92 NSCLC.
Test [5] deals with TK-10 renal.
In test [6] the test system is ACHN renal.
The subject of test [7] is SK-MEL-5 melanoma.
Test [8] concerns HCT-15 colon.
Test [9] has as its system NCI/ADR-RES ovarian.

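Test compounds were applied to cells in 96-well plates for 48 hours at 5 doses. GI50 = concentration required for 50% inhibition of growth. Definition used: TGI = concentration required for complete inhibition of growth.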

As for `COC(=O)c1ccccc1CC1Cc2c(C)ccc(C)c2C1=O` (configuration not stated), the TGI in test [1] is 48.2 µM; in [2], 61.6 µM; in [3], greater than 100 µM; in test [4] it was 54.4 µM; in test [5] it was 71.2 µM; in test [6], greater than 100 µM. In addition, the TGI in test [7] is 34 µM; in test [8], greater than 100 µM; in [9], 70.9 µM.
As to `CN(C)C(=O)C(F)(F)C(c1ccccc1)C1C(=O)N(C)C(=O)N(C)C1=O` (configuration not stated), the TGI in [1], in [3], in test [4], in test [5], in test [6] and in test [7] was greater than 100 µM in each case. Also, the TGI in [8] and in test [9] was greater than 100 µM each time.
Regarding `Cc1ccc(S(=O)(=O)OC[C@@]2(C)CC[C@]3(C)CC[C@]4(C)C(=C3C2)C=C[C@@H]2[C@@]3(C)CCCNC(C)(C)[C@@H]3CC[C@]24C)cc1`, the GI50 in test [3] was 1.78 µM; in [4], 1.45 µM; in test [5], 1.88 µM; in test [6], 1.72 µM; in [9], 2.05 µM. Also, the TGI in test [3] worked out at 3.26 µM; in test [4] it was 2.97 µM; in test [5], 3.59 µM; in [6], 3.1 µM; in [9], 4.59 µM.
Turning to `[CH3][Sn]([CH3])([CH3])[S]C(=S)N1CCOCC1`, the GI50 in [1] is 1.22 µM; in [2] it was 0.28 µM; in test [3] it was 3.49 µM; in [4], 1.84 µM; in [7], 0.881 µM; in test [8], 1.81 µM. The GI50 in [9] is 1.82 µM. In addition, the TGI in test [1] is 14.9 µM; in test [2] it was 1.5 µM; in [3], 33.6 µM; in [4], 6.48 µM; in [7], 2.62 µM; in [8] it was greater than 100 µM. In addition, the TGI in test [9] turned out to be 11.2 µM.
As for `CO[C@@]12C[C@H](CNC(=O)c3ccc[nH]3)O[C@@H]1NC(=O)N2`, the TGI in test [1], in [2], in [3], in [4], in test [5] and in test [6] was greater than 100 µM each time. The TGI in [7], in test [8] and in test [9] was greater than 100 µM in each case.
On to `CC1=NN(c2nc(N)nc(CO)n2)C(C)(C)C1`, for which the TGI in [1], in [2], in test [3], in test [4], in [5] and in test [6] was greater than 100 µM throughout. Further, the TGI in test [7], in [8] and in test [9] was greater than 100 µM throughout.
Regarding `CN(C)C(=O)C(F)(F)C(c1ccccc1Br)C1C(=O)N(C)C(=O)N(C)C1=O` (configuration not stated), the TGI in test [1], in test [3], in test [4], in [5], in test [6] and in test [7] was greater than 100 µM throughout. The TGI in test [8] and in test [9] was greater than 100 µM throughout.
Turning to `CNC(=S)N/N=C/C(C)=N/NC(=S)NC`, the TGI in [3], in test [5], in test [6], in test [7] and in test [8] was greater than 100 µM each time.
For the molecule `C/C(=C\C(=O)Nc1ccc2n[nH]nc2c1)Nc1ccc2n[nH]nc2c1`, the TGI in test [1], in [2], in [3], in test [4], in test [5] and in test [6] was greater than 100 µM each time. Besides, the TGI in test [7] and in test [8] was greater than 100 µM in each case.
For `CCCCCCCCCCCC1N=C(N)N=C(N)N1c1cccc(Br)c1` (configuration not stated), the GI50 is 0.412 µM in test [2]; 1.51 µM in [4]; 1.56 µM in test [5]; 2.52 µM in [6]; 5.2 µM in test [8]; 14.6 µM in [9]. Further, the TGI in test [2] stood at 1.71 µM; in test [4] it was 4.34 µM; in [5] it was 2.94 µM; in [6] it was 7.05 µM; in test [8], 26.3 µM; in [9], 39.6 µM.
Regarding `Cc1ccc(/C=c2\cc3oc(=O)c4cccc(c4-3)c2=O)cc1`, the TGI in test [1], in test [2], in test [3], in test [4], in test [5] and in test [6] was greater than 100 µM each time. For the same molecule, the TGI in [8] and in test [9] was greater than 100 µM throughout.
Regarding `Nc1nc(SCc2ccccc2Cl)c2ncn(C3OC(CO)C(O)C3O)c2n1` (configuration not stated), the TGI in [2], in test [3], in test [4], in test [5], in test [6] and in test [7] was greater than 100 µM in each case. Moreover, the TGI in [8] is greater than 100 µM.

The values are drawn from PubChem BioAssay (NCI).
